Source: patent US20230147196A1, “MITOCHONDRIAL DYSFUNCTION IMPROVING AGENT” (priority 2020, published 2023)

Key:
[1] = test system: hippocampus-derived neurons; assay: Neuronopathy model: single neuron-astrocyte coculture treated with Aβ peptide (Aβ25-35), Sholl analysis of dendrites and axons; format: cell-based, ICR mouse; settings: for neuropathy of nerve axons (branches and elongation, Tau antibody staining, Sholl analysis) / neuropathy of nerve dendrites (branches and elongation, MAP2 antibody staining, Sholl analysis): Aβ25-35 1 μM, test compound 0.3 μM, exposed for three days, FIGS. 2 and 3; for neurotoxicity caused by Aβ: primary neurons, low concentration of 0.3 μM, summary statement
Description: In a neuronopathy model due to Aβ peptide of which a single neuron-astrocyte coculture sample is treated with Aβ peptide, an improvement effect in neurodegeneration of a MKH derivative was evaluated. Since mitochondrial affinity of the derivative and reconvertibility to MKH are expected affect the MKH delivery by an MKH derivative, a cationic derivative (MKH-DMG) presumed to have a high affinity, an anionic derivative (MKH-SUC) having a high intracellular reconversionability, and an oxidant of MKH (MK-4) used in clinical study were evaluated (Chem. 7).
After culturing (2 weeks) astrocytes isolated from the cerebral cortex of 0- to 1-day-old ICR mouse, regions were divided in dots on a slide glass and cultured. After culturing for one more week, hippocampus-derived neurons of 0- to 1-day-old ICR mouse were seeded and cocultured. From day 1 of seeding neuron, Aβ25-35 (1 μM) and a test compound (0.3 μM) were exposed for three days, and morphological change of neurons was observed. Dendrites (MAP2 antibody) and axons (Tau antibody) of nerves were stained by immunostaining and analyzed. Dendrites and axons were evaluated for changes in branches and elongation of dendrites and axons by Sholl analysis method.

[2] = test system: neural cells; assay: Mitochondrial dysfunction caused by Complex I inhibitor rotenone in neural cells; format: cell-based; settings: summary statement on the respiratory chain inhibitor tests in neural cells
Description: Effects of an MKH derivative and a PKH derivative to mitochondrial dysfunctions caused by Complex I inhibitor rotenone ([…] Complex II inhibitor (3-nitro propionic acid (3-NP)), Complex III inhibitor (antimycin A), and a depolarizing agent (carbonylcyanide-m-chlorophenylhydrazone, CCCP) in neural cells were evaluated. The effects were evaluated with cell death (viability measurement with cell titer blue), inhibition of ATP production (ATP measurement with cell titer glo), and membrane potential reduction (JC-1 staining: depolarization (green), hyperpolarization (red)).

Molecule | neuropathy of nerve axons (branches and elongation, Tau antibody staining, Sholl analysis) [1] | neuropathy of nerve dendrites (branches and elongation, MAP2 antibody staining, Sholl analysis) [1] | neurotoxicity caused by Aβ [1] | mitochondrial function (respiratory chain) damage / mitochondrial dysfunction (membrane potential reduced mitochondria) [2]
Menaquinone-4 [MK-4, reference compound] | No improvement effect | No improvement effect | – | –
CC(C)=CCC/C(C)=C/CC/C(C)=C/CC/C(C)=C/Cc1c(C)c(OC(=O)CCC(=O)O)c2ccccc2c1OC(=O)CCC(=O)O [MKH-SUC] | significantly improved | significantly improved | can improve | can improve
CC(C)=CCC/C(C)=C/CC/C(C)=C/CC/C(C)=C/Cc1c(C)c(OC(=O)CN(C)C)c2ccccc2c1OC(=O)CN(C)C [MKH-DMG] | significantly improved | significantly improved | can improve | can improve
